# Where a name gives a salt, the structure may show the parent alone.
# Biological target: T1, human XIAP_BIR3 domain purified protein (Homo sapiens, UniProt P98170)
# T1 construct: purchased R & D
# Assay: XIAP binding inhibitory activity, HTRF method with b-Smac ligand
# Conditions: for IC50: second symbol of the cell, read-out: XIAP binding 50% inhibitory concentration (IC50 value); for inhibition at 3 µM: test compound 3 μM, first symbol of the cell, read-out: XIAP binding inhibition rate when the concentration of the test compound is 3 μM
# Description: Human XIAP binding inhibitory activity were measured by the Homogeneous Time Resolved Fluorescence (HTRF) method with using commercially available human XIAP_BIR3 domain purified protein (R & D) and as a ligand a Smac N-terminal peptide (AVPIAQK (SEQ ID NO: 1)) (hereinafter referred to as “b-Smac”; Peptide Research Laboratories, Inc.) biotinylated at the C-terminus according to a conventional method.
# The HTRF method will be described in detail below. A test compound diluted with a reaction buffer was added to a 384-well white shallow bottom plate (Greiner 784076) at 1 μL/well and flash centrifuged for 30 seconds. Subsequently, human XIAP_BIR3 domain purified protein was diluted with the reaction buffer (25 mM HEPES Buffer containing 100 mM NaCl, 0.1% BSA, and 0.1% triton X-100, pH 7.5) to obtain a 90 nM sample diluent, and the resultant sample diluent was added to the above-mentioned white superficial plate at 4.5 μL/well and flash centrifuged for 30 seconds. Subsequently, b-Smac diluted to 90 nM with the reaction buffer was added to the above-mentioned white superficial plat at 4.5 μL/well and flash centrifuged for 30 seconds. A mixed solution of Anti-6 HIS-Cryptate (Eu3+Cryptate-conjugated mouse monoclonal antibody anti-6 Histidine; cisbio) and Streptavidin-XL^ent! (Highgrade XL665-conjugated streptavidin; cisbio) both diluted 100-fold with HTRF detection buffer (cisbio) at a volume ratio of 1:1 was added to the above white superficial plate at 10 μL/well. After flash centrifuging the white shallow bottom plate for 30 seconds, the white shallow bottom plate was left at room temperature for 4 hours or more in the dark. The white superficial plate after being left was subjected to fluorescence intensity measurement (excitation wavelength: 320 nm, fluorescence wavelength: 665 nm and 615 nm) by EnVision (Perkin Elmer).
# The binding inhibition rate (%) was calculated based on the HTRF ratio in the presence of the test compound to the HTRF ratio in the absence of the test compound (fluorescence intensity at 665 nm/fluorescence intensity at 615 nm).
# T1 sequence (P98170 252-356 limits assumed): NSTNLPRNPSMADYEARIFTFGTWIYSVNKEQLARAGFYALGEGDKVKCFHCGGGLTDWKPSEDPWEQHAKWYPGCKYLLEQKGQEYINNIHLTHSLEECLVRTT
IC50 [µM],inhibition at 3 µM [%],Structure (SMILES)
3 to 30,,"CN[C@@H](C)C(=O)N[C@H](C(=O)N1CCN(C(=O)c2cc3ccc(F)cc3n2CCOC)CC1)C1CCCCC1 [Example 53, (S)—N—((S)-1-cyclohexyl-2-(4-(6-fluoro-1-(2-methoxyethyl)-1H-indole-2-carbonyl)piperazin-1-yl)-2-oxoethyl)-2-(methylamino)propanamide]"
,> 75,"CN[C@@H](C)C(=O)N[C@H](C(=O)N1CCN(C(=O)c2cc3ccc(OC)cc3n2C)CC1)C1CCC(F)(F)CC1 [Example 42, (S)—N—((S)-1-(4,4-Difluorocyclohexyl)-2-(4-(6-methoxy-1-methyl-1H-indole-2-carbonyl)piperazin-1-yl)-2-oxoethyl)-2-(methylamino)propanamide Hydrochloride]"
,> 25,"CN[C@@H](C)C(=O)N[C@H](C(=O)N1CCN(C(=O)c2cc3cc(F)ccc3n2CC(=O)NCCOCCNC(=O)C[C@@H]2N=C(c3ccc(Cl)cc3)c3c(sc(C)c3C)-n3c(C)nnc32)CC1)C1CCCCC1 [Example 75, (S)-N-((S)-2-(4-(1-(2-((2-(2-(2-((S)-4-(4-chlorophenyl)-2,3,9-trimethyl-6H-thieno[3,2-f][1,2,4]triazolo[4,3-a][1,4]diazepin-6-yl)acetamido)ethoxy)ethyl)amino)-2-oxoethyl)-5-fluoro-1H-indole-2-carbonyl)piperazin-1-yl)-1-cyclohexyl-2-oxoethyl)-2-(methylamino)propanamide]"
,> 25,"CN[C@@H](C)C(=O)N[C@H](C(=O)N1CCN(C(=O)c2ccc3nc(C)n(C)c3c2)CC1)C1CCCCC1 [Example 18, (S)-N-((S)-1-cyclohexyl-2-(4-(1,2-dimethyl-1H-benzo[d]imidazole-6-carbonyl)piperazin-1-yl)-2-oxoethyl)-2-(methylamino)propanamide]"
,25 to 50,"CN[C@@H](C)C(=O)N[C@H](C(=O)N1CCN(C(=O)c2c(C(=O)NCCOCCOCCOCCNC(=O)C[C@@H]3N=C(c4ccc(Cl)cc4)c4c(sc(C)c4C)-n4c(C)nnc43)c3cc(F)c(F)cc3n2C)CC1)C1CCCCC1 [Example 74, N-(1-((S)-4-(4-chlorophenyl)-2,3,9-trimethyl-6H-thieno[3,2-f][1,2,4]triazolo[4,3-a][1,4]diazepin-6-yl)-2-oxo-6,9,12-trioxa-3-azatetradecan-14-yl)-2-(4-((S)-2-cyclohexyl-2-((S)-2-(methylamino)propanamido)acetyl)piperazine-1-carbonyl)-5,6-difluoro-1-methyl-1H-indole-3-carboxamide]"
3 to 30,,"Cc1nc(Nc2ncc(C(=O)Nc3c(C)cccc3Cl)s2)cc(N2CCN(CCOCCOCCOC[C@H]3CN[C@H](C)CN3CC(=O)N3CCN(C(=O)c4cc5cc(F)c(F)cc5n4C)C[C@H]3C)CC2)n1 [Example 83, N-(2-chloro-6-methylphenyl)-2-((6-(4-(2-(2-(2-(((2R,5R)-1-(2-((R)-4-(5,6-difluoro-1-methyl-1H-indole-2-carbonyl)-2-methylpiperazin-1-yl)-2-oxoethyl)-5-methylpiperazin-2-yl)methoxy)ethoxy)ethoxy)ethyl)piperazin-1-yl)-2-methylpyrimidin-4-yl)amino)thiazole-5-carboxamide]"
3 to 30,,"C[C@@H]1CN(CC(=O)N2CCN(C(=O)c3cc4cc(F)c(F)cc4n3C)C[C@H]2C)[C@@H](COCCOCCOCCOCCO)CN1 [Example 65, 1-((R)-4-(5,6-Difluoro-1-methyl-1H-indole-2-carbonyl)-2-methylpiperazin-1-yl)-2-((2R,5R)-2-(13-hydroxy-2,5,8,11-tetraoxatridecyl)-5-methylpiperazin-1-yl)ethan-1-one]"
3 to 30,,"CN[C@@H](C)C(=O)N[C@H](C(=O)N1CCN(C(=O)c2c(OCCOCCO)c3cc(F)c(F)cc3n2C)CC1)C1CCCCC1 [Example 50, (S)—N—((S)-1-Cyclohexyl-2-(4-(5,6-difluoro-3-(2-(2-hydroxyethoxy)ethoxy)-1-methyl-1H-indole-2-carbonyl)piperazin-1-yl)-2-oxoethyl)-2-(methylamino)propanamide]"
,> 75,"CN[C@@H](C)C(=O)N[C@H](C(=O)N1CCN(C(=O)c2cc3ccccn3c2)CC1)C1CCCCC1 [Example 7, (S)-N-((S)-1-cyclohexyl-2-(4-(indolizine-2-carbonyl)piperazin-1-yl)-2-oxoethyl)-2-(methylamino)propanamide]"
,> 75,"CN[C@@H](C)C(=O)N[C@H](C(=O)N1CCN(C(=O)c2cc3ccc(OC)cc3n2C)[C@H](C)C1)C1CCCCC1 [Example 34, (S)—N—((S)-1-Cyclohexyl-2-((R)-4-(6-methoxy-1-methyl-1H-indole-2-carbonyl)-3-methylpiperazin-1-yl)-2-oxoethyl)-2-(methylamino)propanamide Hydrochloride]"
0.3 to 3,,"CN[C@@H](C)C(=O)N[C@H](C(=O)N1CCN(C(=O)c2cc3c(OCCOCCOCCOCCO)c(F)c(F)cc3n2C)CC1)C1CCCCC1 [Example 68, (S)—N—((S)-1-Cyclohexyl-2-(4-(5,6-difluoro-4-(2-(2-(2-(2-hydroxyethoxy)ethoxy)ethoxy)ethoxy)-1-methyl-1H-indole-2-carbonyl)piperazin-1-yl)-2-oxoethyl)-2-(methylamino)propanamide]"
,50 to 75,"CN[C@@H](C)C(=O)N[C@H](C(=O)N1CCN(C(=O)c2ccn3nccc3c2C)CC1)C1CCCCC1 [Example 4, (S)-N-((S)-1-cyclohexyl-2-(4-(4-methylpyrazolo[1,5-a]pyridine-5-carbonyl)piperazin-1-yl)-2-oxoethyl)-2-(methylamino)propanamide]"
0.3 to 3,,"CN[C@@H](C)C(=O)N[C@H](C(=O)N1CCN(C(=O)c2cc3cc(F)c(OC)cc3n2C)C[C@H]1C)C1CCCCC1 [Example 57, (S)—N—[(S)-1-Cyclohexyl-2-[(R)-4-[(5-fluoro-6-methoxy-1-methyl-1H-indole-2carbonyl]-2-methylpiperazin-1-yl]-2-oxoethyl]-2-(methylamino)propanamide trifluoroacetate]"
,> 25,"CN[C@@H](C)C(=O)N[C@H](C(=O)N1CCN(C(=O)c2cc3cccnc3n2C)CC1)C1CCCCC1 [Example 13, (S)-N-((S)-1-cyclohexyl-2-(4-(1-methyl-1H-pyrrolo[2,3-b]pyridine-2-carbonyl)piperazin-1-yl)-2-oxoethyl)-2-(methylamino)propanamide]"
,25 to 50,"CN[C@@H](C)C(=O)N[C@H](C(=O)N1CCN(C(=O)c2cc3ccnn3cc2C)CC1)C1CCCCC1 [Example 3, (S)-N-((S)-1-cyclohexyl-2-(4-(6-methylpyrazolo[1,5-a]pyridine-5-carbonyl)piperazin-1-yl)-2-oxoethyl)-2-(methylamino)propanamide]"
,> 75,"CN[C@@H](C)C(=O)N[C@H](C(=O)N1CCN(C(=O)c2cc3ccc(OC)cc3n2C)C[C@H]1C)C1CCCCC1 [Example 24, (S)—N—((S)-1-cyclohexyl-2-((R)-4-(6-methoxy-1-methyl-1H-indole-2-carbonyl)-2-methylpiperazin-1-yl)-2-oxoethyl)-2-(methylamino)propanamide Hydrochloride]"

Structure (SMILES),IC50 [µM],inhibition at 3 µM [%]
"CN[C@@H](C)C(=O)N[C@H](C(=O)N1C2CC1CN(C(=O)c1cc3cc(F)c(F)cc3n1C)C2)C1CCCCC1 [Example 60, (2S)-N-((1S)-1-cyclohexyl-2-(3-((5,6-difluoro-1-methyl-1H-indol-2-yl)carbonyl)-3,6-diazabicyclo[3.1.1]heptan-6-yl)-2-oxoethyl)-2 (methylamino)propanamide]",3 to 30,

# Source: patent publication US12202829B2, “Heterocyclic compound” (FIMECS, Inc., priority 2018, dated 2025)
